Drawing on the NIST ThermoML archive (doi:10.1016/j.jct.2014.11.014), this text covers osmotic coefficient for 2 compounds.

± gives the expanded uncertainty stated by the source.

This data set in a line: osmotic coefficient (dimensionless); mn = molality of the nth substance listed, in mol/kg. Particulars: 298.15 K, 100 kPa, Liquid, isopiestic method.

In the case of `N[C@@H](CO)C(=O)O` [L-serine] + O, the osmotic coefficient (m1 = 1.014) was 0.986 ± 0.01; the osmotic coefficient (m1 = 2.276) was determined as 0.876 ± 0.011; the osmotic coefficient (m1 = 2.931) is 0.855 ± 0.011; the osmotic coefficient (m1 = 3.121) is 0.875 ± 0.011; the osmotic coefficient (m1 = 3.201) is 0.872 ± 0.011; the osmotic coefficient (m1 = 3.445) came to 0.861 ± 0.011. For the same compound, the osmotic coefficient (m1 = 3.639) amounted to 0.889 ± 0.011.
On to `CCCCn1cc[n+](C)c1.[Br-]` [1-butyl-3-methylimidazolium bromide] + O, for which the osmotic coefficient turned out to be 0.771 ± 0.013 (m1 = 0.6482); 0.742 ± 0.014 (m1 = 1.344); 0.734 ± 0.014 (m1 = 1.706); 0.731 ± 0.014 (m1 = 1.869); 0.726 ± 0.014 (m1 = 1.921); 0.729 ± 0.014 (m1 = 2.034). Moreover, for the setting “m1 = 2.247”, the osmotic coefficient was determined as 0.719 ± 0.014.
